{"source": "patent US11369653B2", "about": "“Traditional Chinese medicine composition for treating cardiovascular and cerebrovascular disease, preparation method therefor and use thereof” (priority 2018, dated 2022)", "key": {"[1]": {"test_system": "thrombin induced platelet aggregation in rats", "experiment": "Thrombin induced rat platelet aggregation after 15 days gavage", "assay_type": "in vivo", "settings": "SD rats, 6.75 mg/kg by gavage for 15 days", "source_text": "Platelet aggregation rate is a detection index of platelet function. The higher the platelet aggregation rate, the greater the possibility of thrombosis. In arteriosclerosis, coronary heart disease, cerebral infarction, hypertension, diabetes and other thrombotic diseases, platelet aggregation rate is often increased. […] Therefore, the determination of platelet aggregation rate can be used to observe the curative effect and screen drugs. In this study, thrombin induced rat platelet aggregation model was used to evaluate the inhibitory effect of the traditional Chinese medicine composition on platelet aggregation. […]\nAfter the last administration, 3% Pentobarbital Sodium was injected intraperitoneally for anesthesia (40 mg/kg). […] After 10 minutes of centrifugation at 800 rpm, the upper platelet rich plasma (PRP) was aspirated and the number of platelets was counted. […]\nA small magnetic rod and 300 μl PRP were added into a square cup, which was preheated for 5 minutes in a constant temperature hole, and 300 μl PPP was added into another square cup. […] The maximum platelet aggregation rate was measured, wherein 3-4 parallel tests were performed for each blood sample and the average value was taken."}, "[2]": {"test_system": "arteriovenous bypass thrombosis in rats", "experiment": "Arteriovenous bypass thrombosis in rats", "assay_type": "in vivo", "settings": "SD rats, 6.75 mg/kg by gavage for 15 days", "description": "After 5 days of adaptive feeding, the animals were randomly divided into blank control group, positive control group (Plavix group, 6.75 mg/kg), and four test substance groups (100, 200, 400 and 800 mg/kg), with 20 rats in each group. The animals were administered by gavage for 15 consecutive days, once a day.\nAfter the last administration, 3% Pentobarbital Sodium was injected intraperitoneally for anesthesia (40 mg/kg). The right common carotid artery and left external jugular vein were separated. A 6 cm long medical surgical suture (No. 0) was placed in the middle of a polyethylene tube, which was filled with normal saline and inserted into the right common carotid artery and the left external jugular vein respectively to form an arteriovenous vascular loop. After 15 minutes, the blood flow was cut off, and the suture was taken out and weighed.\nIn this experiment, the classical rat arteriovenous bypass was used to form the bypass arteriovenous blood flow. When the platelets in the arterial blood flow contact the rough surface of the suture, they adhere to the suture, and the platelet aggregation forms platelet thrombosis around the surface of the suture. When platelet adhesion and aggregation function is inhibited, the weight of thrombosis become smaller. Therefore, the adhesion and aggregation function of platelets can be measured by thrombus weight."}}}
{"smiles": "COC(=O)[C@H](c1ccccc1Cl)N1CCc2sccc2C1", "note": "[Plavix, Clopidogrel Hydrogen Sulphate]", "values": [{"measurement": "Maximum platelet aggregation rate", "setting": "[1]", "result": "35.8±29.7", "unit": "%"}, {"measurement": "Net weight of suture", "setting": "[2]", "result": "20.2 ± 4.8", "unit": "mg"}]}
